In patent US20040097596A1 (priority 2000, published 2004):
Where two headings read alike, the source gives them in different places.

Tested on: Phytophthora infestans
Assay type: in vivo
Settings: for E, Expected % disease control / O, Observed % disease control / O-E: A76 potato; for performance in combination with A76 (indicative of synergy): in combination with A76 potato, observed vs expected disease control
[1] = 3 ppm, Jan. 25, 2001, FB 2001/3001
[2] = 3 ppm, Jan. 26, 2001, FB 2001/3001
[3] = 3 ppm, Jan. 27, 2001, FB 2001/3001
[4] = 3 ppm, Jan. 28, 2001, FB 2001/3001
[5] = 3 ppm, Jan. 29, 2001, FB 2001/3001
[6] = 3 ppm, Oct. 13, 2000, FB 2000/3024
[7] = 3 ppm, Oct. 16, 2000, FB 2000/3024
[8] = 3 ppm, Oct. 18, 2000, FB 2000/3024
[9] = 3 ppm, Oct. 20, 2000, FB 2000/3024
[10] = 10 ppm, Jan. 25, 2001, FB 2001/3001
[11] = 10 ppm, Jan. 26, 2001, FB 2001/3001
[12] = 10 ppm, Jan. 27, 2001, FB 2001/3001
[13] = 10 ppm, Jan. 28, 2001, FB 2001/3001
[14] = 10 ppm, Jan. 29, 2001, FB 2001/3001
[15] = 10 ppm, Oct. 13, 2000, FB 2000/3024
[16] = 10 ppm, Oct. 16, 2000, FB 2000/3024
[17] = 10 ppm, Oct. 18, 2000, FB 2000/3024
[18] = 10 ppm, Oct. 20, 2000, FB 2000/3024
[19] = 30 ppm, Oct. 13, 2000, FB 2000/3024
[20] = 30 ppm, Oct. 16, 2000, FB 2000/3024
[21] = 30 ppm, Oct. 18, 2000, FB 2000/3024
[22] = 30 ppm, Oct. 20, 2000, FB 2000/3024

In the case of `COCC(=O)N(c1c(C)cccc1C)C(C)C(=O)OC` (centres unmarked) [Metalaxyl, metalaxyl], the “E, Expected % disease control” value [1] is reported as 88.8%, the “O, Observed % disease control” value [1] is reported as 91.7% and the O-E [1] is reported as 2.8. For the same compound, the “E, Expected % disease control” value [2] was 92.6%, the “O, Observed % disease control” value [2] was 94.9% and the O-E [2] was 2.3. For the same compound, the “E, Expected % disease control” value [3] was 87.2%, the “O, Observed % disease control” value [3] was 93.8% and the O-E [3] was 6.5. The “E, Expected % disease control” value [4] was 57.9%, the “O, Observed % disease control” value [4] was 91.9% and the O-E [4] was 34.1. For the same compound, the “E, Expected % disease control” value [5] was 38.1%, the “O, Observed % disease control” value [5] was 89.9% and the O-E [5] was 51.8. The “E, Expected % disease control” value [6] was 79.35%, the “O, Observed % disease control” value [6] was 94.37% and the O-E [6] was 15.02. For the same compound, the “E, Expected % disease control” value [7] was 71.31%, the “O, Observed % disease control” value [7] was 97.68% and the O-E [7] was 26.37. For the same compound, the “E, Expected % disease control” value [8] was 58.26%, the “O, Observed % disease control” value [8] was 97.95% and the O-E [8] was 39.69. For the same compound, the “E, Expected % disease control” value [9] was 42.01%, the “O, Observed % disease control” value [9] was 95.95% and the O-E [9] was 53.94. For the same compound, the “E, Expected % disease control” value [10] was 98.3%, the “O, Observed % disease control” value [10] was 97.2% and the O-E [10] was 3.9. For the same compound, the “E, Expected % disease control” value [11] was 96.2%, the “O, Observed % disease control” value [11] was 98.7% and the O-E [11] was 2.5. The “E, Expected % disease control” value [12] was 94.2%, the “O, Observed % disease control” value [12] was 99.0% and the O-E [12] was 4.8. For the same compound, the “E, Expected % disease control” value [13] was 80.4%, the “O, Observed % disease control” value [13] was 98.0% and the O-E [13] was 17.6. The “E, Expected % disease control” value [14] was 55.4%, the “O, Observed % disease control” value [14] was 97.0% and the O-E [14] was 41.6. The “E, Expected % disease control” value [15] was 88.74%, the “O, Observed % disease control” value [15] was 94.37% and the O-E [15] was 5.63. The “E, Expected % disease control” value [16] was 87.84%, the “O, Observed % disease control” value [16] was 96.6% and the O-E [16] was 8.76. The “E, Expected % disease control” value [17] was 75.07%, the “O, Observed % disease control” value [17] was 97.95% and the O-E [17] was 22.88. For the same compound, the “E, Expected % disease control” value [18] was 48.83%, the “O, Observed % disease control” value [18] was 96.96% and the O-E [18] was 48.13. For the same compound, the “E, Expected % disease control” value [19] was 96.25%, the “O, Observed % disease control” value [19] was 100% and the O-E [19] was 3.75. The “E, Expected % disease control” value [20] was 97.08%, the “O, Observed % disease control” value [20] was 100% and the O-E [20] was 2.92. For the same compound, the “E, Expected % disease control” value [21] was 94.58%, the “O, Observed % disease control” value [21] was 97.95% and the O-E [21] was 3.37. The “E, Expected % disease control” value [22] was 89.77%, the “O, Observed % disease control” value [22] was 97.97% and the O-E [22] was 8.2. For the same compound, the “performance in combination with A76 (indicative of synergy)” value was “better than expected”.

`N#Cc1c(Cl)c(Cl)c(Cl)c(C#N)c1Cl` [Chlorothalonil, chlorothalonil] was tested, and the “E, Expected % disease control” value [1] was 98.3%, the “O, Observed % disease control” value [1] was 91.7% and the O-E [1] was −1.6. The “E, Expected % disease control” value [2] was 96.2%, the “O, Observed % disease control” value [2] was 94.9% and the O-E [2] was −1.3. The “E, Expected % disease control” value [3] was 94.5%, the “O, Observed % disease control” value [3] was 92.7% and the O-E [3] was −1.7. For the same compound, the “E, Expected % disease control” value [4] was 83.2%, the “O, Observed % disease control” value [4] was 86.9% and the O-E [4] was 3.6. For the same compound, the “E, Expected % disease control” value [5] was 67.2%, the “O, Observed % disease control” value [5] was 77.9% and the O-E [5] was 10.7. The “E, Expected % disease control” value [6] was 73.73%, the “O, Observed % disease control” value [6] was 83.1% and the O-E [6] was 9.37. The “E, Expected % disease control” value [7] was 78.12%, the “O, Observed % disease control” value [7] was 86.09% and the O-E [7] was 7.97. The “E, Expected % disease control” value [8] was 56.09%, the “O, Observed % disease control” value [8] was 76.41% and the O-E [8] was 20.32. The “E, Expected % disease control” value [9] was 39.95%, the “O, Observed % disease control” value [9] was 75.7% and the O-E [9] was 35.75. The “E, Expected % disease control” value [10] was 97.0%, the “O, Observed % disease control” value [10] was 97.2% and the O-E [10] was 0.2. The “E, Expected % disease control” value [11] was 98.2%, the “O, Observed % disease control” value [11] was 97.4% and the O-E [11] was −0.8. For the same compound, the “E, Expected % disease control” value [12] was 97.8%, the “O, Observed % disease control” value [12] was 97.9% and the O-E [12] was 0.1. For the same compound, the “E, Expected % disease control” value [13] was 93.8%, the “O, Observed % disease control” value [13] was 99.0% and the O-E [13] was 5.2. The “E, Expected % disease control” value [14] was 90.1%, the “O, Observed % disease control” value [14] was 97.0% and the O-E [14] was 6.9. The “E, Expected % disease control” value [15] was 92.49%, the “O, Observed % disease control” value [15] was 88.73% and the O-E [15] was −3.76. The “E, Expected % disease control” value [16] was 94.65%, the “O, Observed % disease control” value [16] was 95.36% and the O-E [16] was 0.71. For the same compound, the “E, Expected % disease control” value [17] was 91.33%, the “O, Observed % disease control” value [17] was 87.77% and the O-E [17] was −3.56. The “E, Expected % disease control” value [18] was 84.98%, the “O, Observed % disease control” value [18] was 79.74% and the O-E [18] was −5.24. The “performance in combination with A76 (indicative of synergy)” value was “better than expected”.
